According to patent US20100093643A1 (priority 2006, published 2010):
Read-outs that look alike come from different tables or passages of the source. Square brackets hold non-standard residues; d marks the D form. Ends that are not written are not given here. Phe(4-NO2) = N[C@@H](Cc1ccc([N+](=O)[O-])cc1)C(=O)O; dDab = NCC[C@@H](N)C(=O)O

Legend:
[1] = test system: BALB mice under normobaric hypoxic hypoxia; assay: Antihypoxic action, lifetime of mice under normobaric hypoxic hypoxia; assay type: in vivo, mouse
Procedure: Antihypoxic action of the new enkephalin analogue (1) was determined by the measurement of lifetime duration in mice under the normobaric hypoxic hypoxia conditions.
The experiments were conducted on BALB-bread mice weighing 20 to 22 g. The normobaric hypoxic hypoxia conditions were modelled by placing the animals in hermetic camera, containing Ca(OH)2 to absorb the excess of carbon dioxide. The substances studied were injected intraperitoneally 1 min. before the placing of animals in the hermetic camera. The peptides were used at doses 1.0 mg/kg. […] Sodium oxybutyrate at highest therapeutic dose was used as comparative compound. The lifetime was estimated as the time when the animals stopped making breathing movements.

CD-1 male mice = assay: Analgesic activity in vivo, hot plate method; parameters: species or system mouse; conditions: for analgesic effect in words: hot plate
Procedure: Male Swiss albino mice (CD1), weighing 20-22 g were used throughout the study. The animals were housed in solid bottom polycarbonate cages with access to standard laboratory diet (Laboratory Rodent Diet PK-120) and tap water ad libitum, under controlled environmental conditions (temperature:18-26° C., 8 a.m. to 8 p.m. light-dark cycle). Mice were tested only once.
The Hot-plate-meter represents the thermostatic controllable, electro-heated up surface limited by transparent walls (L: 25 cm, W: 25 cm, H: 35 cm). The forward panel of the device is equipped by buttons for the control of time and a temperature mode (Columbus Instruments).
The i.v. administration was performed via tail vein as a bolus injection. The doses for all animals were calculated on the basis of the last value of the individual body weight.
The animals accurately were placed on the preheated hot plate (55±0.5° C.) after i.v. injection of saline or peptides and the latencies to first paw licking and first jumping were measured. The other behavioral reactions were ignored. The animals were removed from a hot surface after the first jumping. A cut-off time of 180 s was used to avoid tissue damage.
To evaluate the hot-plate test responses, the control latencies (t0) and test latencies (t1) were determined after injection of saline or peptides, respectively. The percentage of the maximal possible effect (% MPE) was calculated as % MPE=(t1−t0)/(t2−t0)×100, where the cut-off time (t2) was 180 s.
The latency for the first jumping is considered as the most indicative in the hot-plate test. The area under the time-response curve was calculated by methods described elsewhere (Cicero and Meyer, 1973), to assess the magnitude of antinociception (FIG. 5, see appendix).
The median analgesic dose (ED50) also has been calculated for this parameter.

outbreed male mice = assay: Analgesic activity in vivo, tail pinch method; parameters: species or system mouse; conditions: for Duration of analgesic effect at ED60-80 / ED50 nmol/animal (dose interval) / Relative analgesic activity morphine = 1: intracisternal administration
Procedure: Analgesic activity of enkephalin analogues was determined by a “tail pinch” method [Ueda H.; Amano H.; Shiomi H.; Takagi H. (1979). Eur. J. Pharmacol., 56, 265-268]. […] Ten mice were used in each experiment.
The studied substances were dissolved in sterile physiological solution and injected in J-shaped needles into the brain of conscious mice at a dose of 10 μl. Control animals received 10 μl of sterile physiological solution. Intravenous administration was into the tail vein. Analgesic activity was tested by pinching the mouse tail with an artery clip with 200 g pressure. The mice who bit the clip within one second after application of pinching were selected for assays. Analgesic activity was defined as latency on the biting response greater than 6 sec. The analgesic tests were performed 5, 15, 30, 60 and 90 min after administration and then every 30 min until the analgesic reaction was stopped. The analgesic activity of the peptides was expressed as a percentage of mice not showing the biting response.

[2] = test system: peripheral opiate receptors, mouse vas deferens (MVD); assay: MVD bioassay, suppression of electrically induced contraction
Procedure: Brit. J. Pharmacol., 35, 10-28]. The longitudinal muscle of ileum from guinea pig of any sex (weight 350-500 g) was carefully separated from underlying circular muscle and placed into a small bath with Krebs solution at 36° C.
The solution was constantly aerated. A constant load of 0.2 g was applied to the tissue. The tissue was stimulated by means of the ring platinum electrodes by single impulses of […] duration with 0.1 Hz frequency. […] Vas deferens of mice (weight 27 to 30 g) were placed into a bath with modified Krebs solution (not containing magnesium sulphate) at 31° C. The substances under study were dissolved in distilled water. The inhibiting activity of the compounds was determined by accumulating doses, adding increasing concentrations of the compounds without washing. The activity of the preparations was expressed as IC50 in nmol/l. The results obtained in 8-10 tests were statistically processed using Student's criterion.

[3] = target: T1, peripheral opiate receptors, guinea pig ileum (GPI, predominantly μ-type of opioid receptor) (Cavia porcellus, UniProt A0ACM8Q262); conditions: [Leu^5]-enkephalin = 100
T1 construct: other: guinea pig ileum longitudinal muscle, electrical stimulation; GPI Relative potency, %; other: GPI assay

[4] = test system: peripheral opiate receptors, guinea pig ileum (GPI, predominantly μ-type of opioid receptor); conditions: ratio of relative potencies GPI to MVD
[5] = test system: male Sprague-Dawley rats, left coronary artery occlusion (LCAO); assay: Cardiac ischemia rat model, left coronary artery occlusion 25 min / reperfusion 120 min, infarct size; assay type: in vivo
[6] = test system: male Sprague-Dawley rats, left coronary artery occlusion (LCAO); assay: as above; assay type: in vivo; remark: listed apart in the source
Procedure: Male Sprague-Dawley (CD) rats weighing 280-380 g were used throughout this study. The rats were anesthetized by i.p. administration of urethane (1-1.5 g/kg). A tracheotomy was performed, and the trachea of the animal was intubated with a cannula connected to a rodent ventilator (model UGO BASILE 7025). Body temperature was maintained at 37° C. by use of a heating pad and monitored using rectally placed temperature probes connected to a digital thermometer. Body temperature is monitored and maintained at 37±1° C.)
The femoral artery was isolated and cannulated to measure blood pressure (BP) by a BP transducer (model PN:1891-E45, DTX™, Singapore) connected with computer. Mean arterial pressure and heart rate was calculated by special software. The right femoral vein was cannulated to allow administration of peptides or saline and methylene blue dye.
A left thoracotomy was performed to expose the heart at the fifth intercostal space. The pericardium was removed and a suture was placed under the left coronary artery in the groove between the pulmonary outflow track and left ventricle. With the tubing placed on the myocardial surface, the ligature could be tightened around the left coronary artery and clamped to provide a readily reversible occlusion of blood flow. Hemodynamics and body temperature were monitored during the procedure.
The protocol of experiments conducted in urethane-anesthetized open-chest rats subjected to regional myocardial ischemia-reperfusion is illustrated in FIG. 1 (see appendix).
All animals were subjected to 25 minutes of occlusion and 2 hours of reperfusion. Several doses (0.1 μg/kg-1 μg/kg) of the peptide (4) were given 5 minutes before occlusion. The coronary artery in all rats was occluded by pulling up on the suture and clamping it with plastic tube. At 25 minutes, the clump was released and coronary artery reperfusion was allowed. The surface of the left ventricle pinks up. After 120 min of reperfusion, the ligature was again tightened to occlude the left coronary artery, and […] methylene blue dye (0.4 ml of 10% w/v in saline) was injected. Once the dye had stained the heart, except in the area at risk, clearly demarcating the total area at risk (AAR), the heart was then quickly removed from the animal and washed out in a water, and the atria, valvular material and right ventricular wall were removed leaving just the left ventricle. The left ventricle was then sectioned transversely into 2-mm slices. The area defined as normal (dyed blue) was separated from the AAR (not dyed blue), and the slices are stained by incubation in 1% 2,3,5-triphenyltetrazolium chloride in pH 7.4 buffer for 15 min at 37° C. Infarcted areas appeared whitish after 2,3,5-triphenyltetrazolium chloride staining, whereas non-infarcted, or viable, areas appeared reddish in colour. Then the slices were immersed in 10% formalin for 5 minutes for fixing.
The slices were photographed. The areas of infarct (2,3,5-triphenyltetrazolium chloride negative) and risk zone (2,3,5-triphenyltetrazolium chloride stained) for each slice are traced and digitized using a computerized planimetry technique. The areas of each region were estimated using computerized planimetry (program “ImageTool”)
The infarct area was divided by the area at risk to determine the ratio of the infarct area/area at risk. (IS/AAR). Data were presented as infarct size (IS) as a percentage of the AAR (i.e., % IS/AAR) for statistical analysis of cardioprotective effects (decreased % IS/AAR). The statistical comparison for in vivo infarct reduction was made with vehicle controls.
A dose-response curve for the cardioprotective effects of peptide (4), compared with vehicle (n=12), was produced with i.v. peptide (4) doses of 0.01 (n=6), 0.1 (n=12), 1.0 (n=12) μg/kg, and 0.005 (n=12) mg/kg administered 5 min before LCAO in a 1 ml/kg dosing volume as a bolus. […]

[7] = test system: rats with ligature of coronary arteries; assay type: in vivo, rat; parameters: myocardial necrosis size: unit not given here
[8] = intravenous administration, time point of 15 min
[9] = i.v., dose 8 μmol/kg, jump latency time (FIG. 4)
[10] = 0.1 μg/kg i.v. 5 min before occlusion
[11] = 5 μg/kg i.v. 5 min before occlusion

T1 sequence (A0ACM8Q262 1-400): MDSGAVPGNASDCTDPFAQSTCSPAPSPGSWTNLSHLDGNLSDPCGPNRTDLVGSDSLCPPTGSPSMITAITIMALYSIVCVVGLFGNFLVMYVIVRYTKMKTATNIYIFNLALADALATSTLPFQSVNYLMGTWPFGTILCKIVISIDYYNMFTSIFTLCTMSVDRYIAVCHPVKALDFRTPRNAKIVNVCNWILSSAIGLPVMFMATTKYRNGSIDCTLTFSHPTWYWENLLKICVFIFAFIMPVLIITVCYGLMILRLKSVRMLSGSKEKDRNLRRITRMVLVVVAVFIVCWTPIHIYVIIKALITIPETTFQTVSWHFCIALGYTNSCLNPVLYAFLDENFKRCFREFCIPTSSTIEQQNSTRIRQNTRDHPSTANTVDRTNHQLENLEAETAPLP

O=C(O)CCCO [Sodium oxybutyrate, reference compound]
Duration of life ([1]; 1000.0 mg/kg (highest therapeutic dose) i.p. 1 min before hermetic chamber): 15.5 ± 0.4 min
lifetime increase in comparison with the control experiments ([1]; 1000.0 mg/kg i.p.): 24%

Y[dK](Ac)G[Phe(4-NO2)]-NH2 [Peptide 2]
ED50 (jump latency) (CD-1 male mice; [8]): 1.7 mg/kg
analgesic activity exceeding that of morphine (CD-1 male mice; intravenous, from ED50 at 15 min): 1.5 times

Tyr-Gly-Gly-Phe-Leu [[Leu^5]-enkephalin, reference compound]
Duration of analgesic effect at ED60-80 (outbreed male mice): 15 min
ED50 nmol/animal (dose interval) (outbreed male mice): 174 (102-281) nmol/animal
Relative analgesic activity morphine = 1 (outbreed male mice): 0.007
MVD Relative potency, % ([2]; [Leu^5]-enkephalin = 100): 100%
IC50 ([2]; mouse vas deferens, electrical stimulation): 20 ± 1 nM
GPI Relative potency, % [3]: 100%
GPIrel/MVDrel [4]: 1

Y[dDab](Ac)G[Phe(4-NO2)]-NH2 [Peptide 4]
IS/AAR, level of ischemic damage ([5]; 1.0 μg/kg i.v. immediately after removal of the LCAO (start of reperfusion)): 32.5±2.4%
infarct size as % of Area at Risk (IS/AAR) ([5]; doses between 0.2 μg/kg and 3.2 μg/kg, 5 min before ischemia (dose-response curve)): smaller than 30%
time of maximum analgesic effect (CD-1 male mice; [9]): 30 min
analgesic effect in words (CD-1 male mice; i.v.): weaker than the effect of the other four peptides tested
IS/AAR, % (infarct size as % of area at risk) ([6]; 0.01 μg/kg i.v. 5 min before occlusion): 45.1±4.6%
IS/AAR, % (infarct size as % of area at risk) [6, 10]: 32.0 ± 3.5%
Relative Reduction of Infarct size, % (Control = 0) [6, 10]: 25.4%
IS/AAR, % (infarct size as % of area at risk) ([6]; 1 μg/kg i.v. 5 min before occlusion): 26.0 ±3.5%
IS/AAR, % (infarct size as % of area at risk) [6, 11]: 32.5 ± 2.5%
Relative Reduction of Infarct size, % (Control = 0) [6, 11]: 24.2%

CN1CC[C@]23c4c5ccc(O)c4O[C@H]2[C@@H](O)C=C[C@H]3[C@H]1C5 [Morphine, reference compound]
ED50 (outbreed male mice; Mus musculus, intravenous administration, read-out: ED50 μmol/kg (dose interval)): 18 µmol/kg
ED50 (CD-1 male mice; Mus musculus, 0.25 h, intravenous administration, time point of 15 min, read-out: ED50 (jump latency)): 2.67 mg/kg

Tyr-D-Orn(Ac-Gly)-Gly-Phe(p-NO2)—NH2 [Peptide 5]
analgesic effect in words (CD-1 male mice; i.v.): practically similar to that of morphine
ED50 (jump latency) (CD-1 male mice; [8]): 1.99 mg/kg

Tyr-Gly-Gly-Phe-Met [[Met^5]-enkephalin, reference compound]
Duration of analgesic effect at ED60-80 (outbreed male mice): 15 min
ED50 nmol/animal (dose interval) (outbreed male mice): 154 (90-261) nmol/animal
Relative analgesic activity morphine = 1 (outbreed male mice): 0.008

O=[N+]([O-])OCC(CO[N+](=O)[O-])O[N+](=O)[O-] [nitroglycerine, reference compound]
myocardial necrosis size ([7]; rat, in vivo): 54.04 ± 1.76
CPK ([7]; rat, in vivo, 0.05 mg/kg): 101.1 ± 6.1 units/l
HF-CPK ([7]; rat, in vivo, 0.05 mg/kg): 19.8 ± 1.1 units/l
Lactate ([7]; rat, in vivo, 0.05 mg/kg): 1.80 ± 0.09 mmol/L

CC(C)NCC(O)COc1cccc2ccccc12.Cl (stereo not drawn) [anaprilinum, reference compound]
myocardial necrosis size ([7]; comparison medicines at highest therapeutic doses, observation time 12 hours): 53.80 ± 1.90

Tyr-D-Orn(Ac-Asn)-Gly-Phe(p-NO2)—NH2 [Peptide 3]
delay of analgesic effect (CD-1 male mice; [9]): 15 min
analgesic effect in words (CD-1 male mice; i.v.): practically similar to that of morphine
ED50 (jump latency) (CD-1 male mice; [8]): 2.04 mg/kg
